Experimental data as given in US11801242B2, “Compositions and methods for adjuvant cancer therapeutics” (DUKE UNIVERSITY, priority 2018, dated 2023).

Key:
[1] = target: T1, chimeric REV1 CTD protein (Mus musculus, UniProt Q920Q2); experiment: Isothermal titration calorimetry; format: binding; conditions: 25° C.
T1 construct: the mouse REV1 CTD (F1150-T1249); His10-GB1 (TEV site) (N, cleaved yes); made in house; host or cells: E. coli BL21 Star (DE3)
T1 sequence (Q920Q2 1150-1249): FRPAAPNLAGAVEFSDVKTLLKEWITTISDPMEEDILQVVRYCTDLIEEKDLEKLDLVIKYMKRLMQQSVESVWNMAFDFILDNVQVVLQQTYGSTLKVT
Protocol: Isothermal titration calorimetry measurements were carried out using a MicroCal VP-ITC instrument at 25° C., with the chimeric REV1 CTD protein (300 μM) in the syringe and compound (15 μM) in the cell. Compounds were initially dissolved in 50% MPD. Protein and compound samples were diluted in a buffer containing 50 mM HEPES pH 7.5, 50 mM KCl, 2 mM TCEP, 2% DMSO and 0.1% MPD. Microcal Origin 7 software was used to analyze the data.

[2] = target: T2, chimeric FLAG-tagged POL κ RIR-REV1 CTD (Mus musculus, UniProt Q920Q2); experiment: In vitro DSS-crosslinking, Western blot; conditions: 100 μM RE01 NaOH salt
T2 construct: the mouse REV1 CTD (F1150-T1249); His10-GB1 (TEV site) (N, cleaved yes); made in house; host or cells: E. coli BL21 Star (DE3)
T2 sequence (Q920Q2 1150-1249): T1 sequence (Q920Q2 1150-1249)
Protocol: Samples of the chimeric FLAG-tagged POL κ RIR-REV1 CTD in the presence of 0 μM or 100 μM RE01 were treated with increasing molar ratios of DSS (disuccinimidyl suberate) and analyzed by SDS-PAGE followed by Western blotting with anti-FLAG antibody. Monomer and crosslinked dimer bands are labeled.
More specifically, chimeric FLAG-tagged POL κ RIR-REV1 CTD in a buffer containing 25 mM HEPES (pH 7.0), 100 mM KCl, and 4 mM TCEP was mixed with either MPD (control) or RE01 NaOH salt in MPD to yield a reaction solution containing 1 μM protein, 5% MPD, and either 0 or 100 μM compound. Appropriate dilutions of DSS in DMSO were added to the reaction mixture to yield DSS-to-protein molar ratios of 0:1, 0.5:1, 1:1, 5:1, 10:1, and 50:1 and a final DMSO concentration of 5% (v/v). The reaction mixture was incubated for 30 min at room temperature and then quenched by addition of 1 M Tris (pH 8.5). The SDS-loading dye containing 4 mM TCEP and 10.8 mM iodoacetamide (to block free cysteines) was added to each reaction mixture, and the samples were loaded onto a Pre-cast 4-20% gradient SDS-PAGE gel (Bio-Rad). The gel samples were transferred to a 0.45 μm nitrocellulose membrane (Bio-Rad) for Western blotting with the anti-FLAG primary antibody M2 (Sigma-Aldrich) and the HRP-conjugated secondary antibody (LI-COR) and imaging with the LI-COR Odyssey system.

A375 xenograft tumors = experiment: Murine xenograft tumor model; format: in vivo, mouse; conditions: co-administration RE01 1.6 mg/kg with cisplatin 1 mg/kg, intratumoral, twice per week for 5 weeks
Protocol: NCRNU-F (nude) female, 6-8-week-old mice were divided into 4 groups (with 6 animals per group) for saline, cisplatin alone, RE01 alone, and cisplatin and RE01 combination treatments. Three million A375 cells mixed in matrigel (Corning) were injected into each flank of the 6 mice to generate 10-12 xenograft tumors per treatment group. After the tumors grew to a total tumor volume of at least 100 mm^3, the drugs (saline, cisplatin alone, RE01 alone, and cisplatin and RE01 combination) with a total volume of 100 μL per injection were injected directly into the tumor. Treatments were carried out twice per week for 5 weeks. On the dosing day, tumors were first measured with calipers, weights were recorded, and then the drugs would be injected directly into the tumors. The mice were sedated with isofluorane prior to measurements and treatments.
The drugs were formulated in 10% EtOH, 40% PEG400, and 50% saline for all the four types of treatments. Cisplatin was injected at a dose of 1 mg/kg per animal and RE01 was administered at a 1.6 mg/kg per animal. In the combination treatment of cisplatin and RE01, the same doses of 1 mg/kg and 1.6 mg/kg respectively per animal were administered. Tumor volumes were calculated by the formula (W^2×L)/2 as described previously.

- protein-to-ligand stoichiometry [1]: 2.04±0.03
- Kd ([1]; read-out: dissociation constant (Kd)): 420 ± 110 nM
- dimerization of the REV1 CTD in solution [2]: promotes the dimerization
Compound: CC(C)CC(=O)c1c(Nc2ccc(Cl)cc2Cl)[nH]c2c(Cl)ccc([N+](=O)[O-])c2c1=O [RE01, 8-chloro-2-((2,4-dichlorophenyl)amino)-3-(3-methylbutanoyl)-5-nitroquinolin-4(1H)-one]
- growth of xenograft human melanomas (A375 xenograft tumors): strikingly suppresses
